Data on 10 molecules can be found in PubChem BioAssay AID1259407 (Chemical Carcinogenesis Research Information System (CCRIS), 2018).

The data set deals with CCRIS mutagenicity, Ames/micronucleus/aberration tests. Briefly: CCRIS mutagenicity studies.
[1] abbreviates: Test System: AMES SALMONELLA TYPHIMURIUM, Strain/Indicator: TA98, Metabolic Activation: NONE, Method: STANDARD PLATE.
Where [2] appears, read: Test System: AMES SALMONELLA TYPHIMURIUM, Strain/Indicator: TA98, Metabolic Activation: RAT, LIVER, S-9, AROCLOR 1254, Method: STANDARD PLATE.
The mark [3] stands for this setting: Test System: AMES SALMONELLA TYPHIMURIUM, Strain/Indicator: TA100, Metabolic Activation: NONE, Method: STANDARD PLATE.
Where [4] appears, read: Test System: AMES SALMONELLA TYPHIMURIUM, Strain/Indicator: TA100, Metabolic Activation: RAT, LIVER, S-9, AROCLOR 1254, Method: STANDARD PLATE.
The mark [5] stands for this setting: Test System: AMES SALMONELLA TYPHIMURIUM, Strain/Indicator: TA1535, Metabolic Activation: NONE, Method: STANDARD PLATE.
Where [6] appears, read: Test System: AMES SALMONELLA TYPHIMURIUM, Strain/Indicator: TA1535, Metabolic Activation: RAT, LIVER, S-9, AROCLOR 1254, Method: STANDARD PLATE.
Setting [7] is: Test System: AMES SALMONELLA TYPHIMURIUM, Strain/Indicator: TA1537, Metabolic Activation: NONE, Method: STANDARD PLATE.
The mark [8] stands for this setting: Test System: AMES SALMONELLA TYPHIMURIUM, Strain/Indicator: TA1537, Metabolic Activation: RAT, LIVER, S-9, AROCLOR 1254, Method: STANDARD PLATE.
The mark [9] stands for this setting: Test System: MOUSE LYMPHOMA, Strain/Indicator: L5178Y (TK+/TK-), Metabolic Activation: NONE, Method: SUSPENSION/PLATE.
Where [10] appears, read: Test System: AMES SALMONELLA TYPHIMURIUM, Strain/Indicator: TA100, Metabolic Activation: NONE, Method: PREINCUBATION
Where [11] appears, read: Test System: AMES SALMONELLA TYPHIMURIUM, Strain/Indicator: TA1535, Metabolic Activation: NONE, Method: PREINCUBATION
Setting [12] is: Test System: AMES SALMONELLA TYPHIMURIUM, Strain/Indicator: TA98, Metabolic Activation: NONE, Method: PREINCUBATION

The source made the active and inactive calls. No rule for the calls is given here.

For the molecule `CCn1cc(C(=O)O)c(=O)c2cc(F)c(-c3ccncc3)c(F)c21`, the mutagenic call is, setting by setting: (Test System: AMES SALMONELLA TYPHIMURIUM, Strain/Indicator: TA98, Metabolic Activation: MOUSE, LIVER, S-9, AROCLOR 1254, Method: STANDARD PLATE) “inactive; negative”; under setting [1], “inactive; negative”; under setting [2], “inactive; negative”; (Test System: AMES SALMONELLA TYPHIMURIUM, Strain/Indicator: TA100, Metabolic Activation: MOUSE, LIVER, S-9, AROCLOR 1254, Method: STANDARD PLATE) “inactive; negative”; under setting [3], “inactive; negative”; under setting [4], “inactive; negative”. Besides, the mutagenic call by setting is: (Test System: AMES SALMONELLA TYPHIMURIUM, Strain/Indicator: TA1535, Metabolic Activation: MOUSE, LIVER, S-9, AROCLOR 1254, Method: STANDARD PLATE) “inactive; negative”; under setting [5], “inactive; negative”; under setting [6], “inactive; negative”; (Test System: AMES SALMONELLA TYPHIMURIUM, Strain/Indicator: TA1537, Metabolic Activation: MOUSE, LIVER, S-9, AROCLOR 1254, Method: STANDARD PLATE) “inactive; negative”; under setting [7], “inactive; negative”; under setting [8], “inactive; negative”. Moreover, the mutagenic call (Test System: CHINESE HAMSTER OVARY, Strain/Indicator: CHO-K1-CMZ (HGPRT), Metabolic Activation: NONE) was “active; positive”; the mutagenic call (Test System: CHINESE HAMSTER V-79, Strain/Indicator: V-79/6-THIOGUANINE, Metabolic Activation: NONE) was “active; positive”; the mutagenic call (Test System: CHINESE HAMSTER V-79, Strain/Indicator: V-79/6-THIOGUANINE, Metabolic Activation: RAT, LIVER, S-9, AROCLOR 1254) was “active; positive”; the mutagenic call under setting [9] is “active; positive”; the mutagenic call (Test System: MOUSE LYMPHOMA, Strain/Indicator: L5178Y (TK+/TK-), Metabolic Activation: RAT, LIVER, S-9, Method: SUSPENSION/PLATE) is “active; positive”.
Turning to `CCCCCCOCC1CO1` (stereo not given), the mutagenic call is, setting by setting: under setting [10], “active; positive”; (Test System: AMES SALMONELLA TYPHIMURIUM, Strain/Indicator: TA100, Metabolic Activation: RAT, LIVER, S-9, AROCLOR 1254 (10%), Method: PREINCUBATION) “inactive; negative”; (Test System: AMES SALMONELLA TYPHIMURIUM, Strain/Indicator: TA1535, Metabolic Activation: HAMSTER, LIVER, S-9, AROCLOR 1254 (10%), Method: PREINCUBATION) “active; positive”; under setting [11], “active; positive”; (Test System: AMES SALMONELLA TYPHIMURIUM, Strain/Indicator: TA1535, Metabolic Activation: RAT, LIVER, S-9, AROCLOR 1254 (10%), Method: PREINCUBATION) “active; positive”.
As to `CCCC(=O)OCCC(C)C`, the mutagenic call is “inactive; negative” (Test System: AMES SALMONELLA TYPHIMURIUM, Strain/Indicator: TA97, Metabolic Activation: NONE, Method: PREINCUBATION); “inactive; negative” (Test System: AMES SALMONELLA TYPHIMURIUM, Strain/Indicator: TA97, Metabolic Activation: RAT, LIVER, S-9, AROCLOR 1254, Method: PREINCUBATION); “inactive; negative” (Test System: AMES SALMONELLA TYPHIMURIUM, Strain/Indicator: TA102, Metabolic Activation: NONE, Method: PREINCUBATION); “inactive; negative” (Test System: AMES SALMONELLA TYPHIMURIUM, Strain/Indicator: TA102, Metabolic Activation: RAT, LIVER, S-9, AROCLOR 1254, Method: PREINCUBATION).
Consider `O=S(=O)(Nc1ccc(Cl)cc1)c1cccc2cccnc12`, for which the mutagenic call was “inactive; negative” under setting [1]; “inactive; negative” under setting [2]; “inactive; negative” under setting [3]; “inactive; negative” under setting [4]; “inactive; negative” under setting [5]; “inactive; negative” under setting [6]. The mutagenic call is “inactive; negative” under setting [7] and “inactive; negative” under setting [8].
`C=C1[C@@H](C)[C@H]2[C@H](Cc3ccccc3)NC(=O)[C@]23OC(=O)/C=C/[C@H](O)CCC[C@@H](C)C/C=C/[C@H]3[C@@H]1O`: the mutagenic call (End Point: In vivo micronucleus, Test System: Micronucleated, binucleated and multinucleated hepatocytes, Species: Mouse, Strain/Sex: ddY/Male, Route: Intravenous) is “active; positive for micronucleated cells when agent administered before and after parti”.
As to `CC[N+](CC)=c1ccc2nc3c(cc(N)c4ccccc43)oc-2c1`, the mutagenic call runs as follows: under setting [4], “active; positive”; (Test System: AMES SALMONELLA TYPHIMURIUM, Strain/Indicator: TA1538, Metabolic Activation: NONE, Method: STANDARD PLATE) “inactive; negative”; (Test System: AMES SALMONELLA TYPHIMURIUM, Strain/Indicator: TA1538, Metabolic Activation: RAT, LIVER, S-9, AROCLOR 1254, Method: STANDARD PLATE) “active; positive”.
Turning to `COc1ccc(CC2CO2)cc1OC` (stereo not given), the mutagenic call was “active; positive” under setting [10], “active; positive” under setting [3], “active; positive” under setting [11] and “active; positive” under setting [5].
Take `O=c1oc2c(O)c(O)cc3c(=O)oc4c(O)c(O)cc1c4c23`: the mutagenic call was “inactive; negative” under setting [12]; “inactive; negative” (Test System: AMES SALMONELLA TYPHIMURIUM, Strain/Indicator: TA98, Metabolic Activation: RAT LIVER S-9, Method: PREINCUBATION); “inactive; negative” under setting [10]; “inactive; negative” (Test System: AMES SALMONELLA TYPHIMURIUM, Strain/Indicator: TA100, Metabolic Activation: RAT LIVER S-9, Method: PREINCUBATION); “inactive; negative” (Test System: Ames Salmonella typhimurium, Strain/Indicator: TA102, Metabolic Activation: None, Method: Preincubation); “inactive; negative” (Test System: Ames Salmonella typhimurium, Strain/Indicator: TA102, Metabolic Activation: Rat, Liver, S-9, Aroclor 1254 in 0.154 M KCl, Method: Preincubation). Also, the mutagenic call reads like this: (Test System: E. COLI, Strain/Indicator: WP2, Metabolic Activation: RAT, LIVER, S-9, AROCLOR 1254, Method: STANDARD PLATE) “inactive; negative”; under setting [9], “inactive; negative. reevaluation of results: negative”; (Test System: MOUSE LYMPHOMA, Strain/Indicator: L5178Y (TK+/TK-), Metabolic Activation: RAT, LIVER, S-9, AROCLOR 1254, Method: SUSPENSION/PLATE) “inactive; negative. reevaluation of results: inconclusive”.
On to `C=CC(O)C=C`, for which the mutagenic call under setting [12] was “inactive; negative”; the mutagenic call (Test System: AMES SALMONELLA TYPHIMURIUM, Strain/Indicator: TA98, Metabolic Activation: S-9, Method: PREINCUBATION) was “inactive; negative”; the mutagenic call under setting [10] was “inactive; negative”; the mutagenic call (Test System: AMES SALMONELLA TYPHIMURIUM, Strain/Indicator: TA100, Metabolic Activation: S-9, Method: PREINCUBATION) is “active; positive”; the mutagenic call under setting [11] was “inactive; negative”; the mutagenic call (Test System: AMES SALMONELLA TYPHIMURIUM, Strain/Indicator: TA1535, Metabolic Activation: S-9, Method: PREINCUBATION) was “inactive; negative”. Besides, the mutagenic call runs as follows: (Test System: E.COLI, Strain/Indicator: WP2UVRA/PKM101, Metabolic Activation: NONE, Method: PREINCUBATION) “inactive; negative”; (Test System: E.COLI, Strain/Indicator: WP2UVRA/PKM101, Metabolic Activation: S-9, Method: PREINCUBATION) “inactive; negative”.
Turning to `Fc1cc2cccnc2c2ncccc12`, the mutagenic call (Test System: AMES SALMONELLA TYPHIMURIUM, Strain/Indicator: TA100, Metabolic Activation: RAT, LIVER, S-9, PHENOBARBITAL AND 5,6-BENZOFLAVONE, Method: PREINCUBATION) was “active; positive”.
